Experimental data reported in the supplement of paper PMC4858399.

Columns and labels:
Details in all cases: exposure time 48 h
[1] = system: Caenorhabditis elegans N2; experiment: AC50 for larval growth inhibition (Hill fit); higher = less potent
In short: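 Worms were synchronised C. elegans N2 L1 larvae, 50 per well of a 96-well plate, kept 48 h at 20°C in K-medium with killed OP50, 1% DMSO and 0.5–200 µM chemical. Size was taken as COPAS Biosort extinction, log-transformed and averaged per well, using only wells with at least 10 worms. AC50 was estimated by a constrained Hill fit with weighted genetic-algorithm regression; values outside the range are censored.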

[2] = system: Caenorhabditis elegans N2; experiment: lowest effective concentration for larval growth inhibition (size below effect threshold); higher = less potent
In short: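 Chemical exposure ran for 48 h at 20°C: 50 C. elegans N2 L1 larvae per 96-well in K-medium with killed bacteria, 1% DMSO and 0.5, 1, 5, 10, 50, 100 or 200 µM chemical. Extinction of each worm, read as size on the Biosort, was log-transformed and averaged by well. The lowest effective concentration is the first dose whose plate-adjusted mean size is below a fixed value and remains so at all higher doses; the value is 5.665.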

[3] = system: Caenorhabditis elegans N2; experiment: mean nematode size ln(EXT) after 48 h, plate-adjusted (DMSO control set to 6) (ln(EXT), control-adjusted); higher = larger nematodes / less growth inhibition
In short: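 Worms were measured individually for extinction on the Biosort after 48 h at 20°C. They began as synchronised C. elegans N2 L1 larvae in K-medium with killed OP50, 1% DMSO and 0.5–200 µM chemical. Once debris had been removed by a growth model, values were natural-logged and averaged per well to give mean size. The plate adjustment subtracted the vehicle control mean and added 6.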

Compound | AC50 for larval growth inhibition [1] | lowest effective concentration [2] | mean nematode size ln(EXT) (ln) ([3]; 0.5 µM) | mean nematode size ln(EXT) (ln) ([3]; 1 µM) | mean nematode size ln(EXT) (ln) ([3]; 5 µM) | mean nematode size ln(EXT) (ln) ([3]; 10 µM) | mean nematode size ln(EXT) (ln) ([3]; 50 µM) | mean nematode size ln(EXT) (ln) ([3]; 100 µM) | mean nematode size ln(EXT) (ln) ([3]; 200 µM)
C=C(C)C(=O)OCCC(F)(F)C(F)(F)C(F)(F)C(F)(F)C(F)(F)C(F)(F)F [3,3,4,4,5,5,6,6,7,7,8,8,8-Tridecafluorooctyl methacrylate] | 23 µM | 50 µM | 5.88 | 5.84 | 5.84 | 5.73 | 5.6 | 5.45 | 5.57
CC(C)[C@H](C(=O)O[C@H](C#N)c1cccc(Oc2ccccc2)c1)c1ccc(Cl)cc1 [Esfenvalerate] | > 200 µM | 200 µM | 5.76 | 5.83 | 5.9 | 5.73 | 5.74 | 5.76 | 5.64
OC[C@@H](O)[C@@H](O)[C@H](O)[C@H](O)CO [D-Mannitol] | > 200 µM | 200 µM | 5.94 | 5.89 | 5.93 | 5.96 | 5.93 | 5.94 | 5.42
O=C(c1ccccc1)c1ccccc1 [Benzophenone] | > 200 µM | 100 µM | 5.86 | 6.01 | 5.94 | 5.89 | 5.79 | 5.66 | 4.65
Nc1ccc(Nc2ccccc2)cc1 [N-Phenyl-1,4-benzenediamine] | 71.8 µM | 50 µM | 5.84 | 5.84 | 5.76 | 5.72 | 5.43 | 5.15 | 5.25
Clc1cc(Cl)c(Cl)cc1Cl [1,2,4,5-Tetrachlorobenzene] | 110 µM | 50 µM | 5.97 | 5.98 | 6.07 | 6.11 | 5.34 | 4.83 | 3.82
O=c1[nH]c2ccc([S+]([O-])CCN3CCC(Cc4ccc(F)cc4)CC3)cc2o1 (stereo unspecified) [Besonprodil] | > 200 µM | 200 µM | 5.75 | 6 | 5.87 | 5.9 | 5.87 | 5.82 | 5.31
C=CCOC(Cn1ccnc1)c1ccc(Cl)cc1Cl (stereo unspecified) [Imazalil] | > 200 µM | 200 µM | 5.91 | 6.17 | 6.07 | 5.99 | 5.83 | 5.74 | 4.6
Nc1ccc2ccccc2c1 [2-Naphthylamine] | > 200 µM | 200 µM | 6 | 5.76 | 5.94 | 5.72 | 5.71 | 5.89 | 5.51
Oc1ccc2c(c1)OC[C@@H](N1CCC(O)(c3ccc(F)cc3)CC1)[C@H]2O | 51.4 µM | 50 µM | 5.9 | 6.11 | 6.21 | 6.18 | 5.48 | 4.39 | 4.5
Clc1ccc(C(Cl)(Cl)Cl)cc1 [4-Chlorobenzotrichloride] | 112 µM | 50 µM | 5.94 | 5.93 | 5.97 | 5.9 | 5.65 | 4.93 | 3.11
Fc1ccccc1[C@@H](F)CO[C@H]1CC[C@H](Nc2[nH]cnc3nncc2-3)CC1 | > 200 µM | 100 µM | 5.89 | 5.84 | 5.82 | 5.68 | 5.67 | 5.25 | 5.4
CCCCCCCCCCCCO [1-Dodecanol] | 20.3 µM | 10 µM | 5.89 | 5.85 | 5.73 | 5.63 | 3.72 | 3.69 | 3.49
COc1ccc(C(=O)Nc2nc3ccccc3c(NCc3ccccc3)c2C#N)cc1 [N-[4-(benzylamino)-3-cyanoquinolin-2-yl]-4-methoxybenzamide] | > 200 µM | 1 µM | 5.68 | 5.65 | 5.49 | 5.41 | 5.18 | 4.88 | 4.46
O=C(NO)C1(NS(=O)(=O)c2ccc(Oc3ccc(F)cc3)cc2)CCOCC1 | > 200 µM | 200 µM | 5.72 | 6.03 | 5.84 | 5.9 | 5.89 | 5.71 | 5.12
Cc1oc(-c2ccccc2)nc1CCOc1ccc(C[C@H](Nc2ccccc2C(=O)c2ccccc2)C(=O)O)cc1 [Farglitazar] | 39 µM | 50 µM | 5.87 | 5.89 | 5.92 | 6.19 | 4.95 | 4.73 | 4.48
CC[C@H]1CC[C@H](NCc2cc3c(cc2OC)[C@H]2C[C@H]2C(=O)N3C)[C@H](c2ccccc2)N1 | > 200 µM | 200 µM | 5.85 | 5.81 | 5.87 | 5.86 | 5.77 | 5.85 | 5.48
ClC1=C(Cl)[C@]2(Cl)[C@@H]3[C@@H]4C[C@@H]([C@H]5O[C@@H]45)[C@@H]3[C@@]1(Cl)C2(Cl)Cl [Dieldrin] | 171 µM | 5 µM | 5.78 | 5.82 | 5.39 | 5.26 | 5.12 | 5.07 | 4.21
CCN(CC)C(=O)SCc1ccc(Cl)cc1 [Thiobencarb] | 51.1 µM | 50 µM | 5.97 | 5.98 | 5.97 | 5.95 | 5.44 | 4.48 | 4.48
